Assay results: patent publication US20150087627A1, “COMBINATION OF KINASE INHIBITORS AND USES THEREOF” (Intellikine LLC, priority 2011, published 2015)

Legend:
PTEN mutant cells = test: Western blot of Akt, S6 and 4EBP phosphorylation in PTEN mutant cells (FIG. 6B); type: cell-based
[1] = system: 786-0 cells, a human kidney carcinoma cell line having a non-mutated PI3Kα; test: In vivo efficacy in 786-0 kidney carcinoma xenograft; set-up: species or system mice; conditions: FIG. 6
Procedure: Compound A was administered orally at 60 and 120 mg/kg and compound A was administered orally as a solution at 1 mg/kg (QD). For example, a PI3Kα inhibitor is compared to a kinase inhibitor with specificity for mTor. […] FIG. 6C also provides biochemical potency data for the two compared inhibitors. PI3 Kinase α, β, γ and δ activity was assayed using the PI3 Kinase HTRF® assay kit (Millipore Corporation). Purified recombinant PI3Kα, PI3Kβ, PI3Kγ and PI3Kδ were obtained from Millipore Corporation. […] Emission ratios were converted into percent inhibitions and imported into GraphPad Prism software. […] IC50 values were determined using a nonlinear regression model available in GraphPad Prism 5.

[2] = system: HCC70 human breast cancer xenografts; test: Antitumor activity, multiple dosing schedules, HCC70 xenografts (Example 43); type: in vivo, Mus musculus; conditions: Day 35
Procedure: Compound A was prepared in 5% NMP+95% PEG400 every 5-7 days and stored at approximately 25° C., shielded from light. The control article used in this study was 5% NMP+95% PEG400. Compounds were completely dissolved in NMP by sonication followed by the addition of the appropriate volume of PEG400. The solution was vortexed and sonicated again to ensure complete mixing.
Low passage HCC70 cells (ATCC) were grown in RPMI (Life Technologies) supplemented with 10% Fetal Bovine Serum (FBS) (PAA Laboratories Pty Ltd) and 1× penicillin-streptomycin (Life Technologies) and supplied at a concentration of 5.0×10^7 cells/mL in serum-free RPMI and 50% Matrigel (BD Biosciences). HCC70 cells (5.0×10^6 cells/animal, 0.1-mL injection volume) were implanted subcutaneously (SC) into flank of female athymic nude mice. The animals used in this study are described in the following table.
Five-week old female athymic nude mice were inoculated SC in flank (cell suspension in serum free RPMI and 50% Matrigel) with 5.0×10^6 HCC70 cells. Tumor growth was monitored with vernier calipers. The mean TV (MTV) was calculated using the formula V=W^2×L/2. When the MTV reached approximately 160 to 180 mm^3, the animals were randomized into 13 treatment groups (n=5/group). […] Tumor growth and body weight were measured twice per week. Percent TGI and body weight change were calculated on Day 35. Treatment started on Day 0 for 28 days. Antitumor activity was determined by calculating the percent TGI using Equation 1: Percent TGI=(mean tumor volume [MTV] of the control group−MTV of a treated group)/MTV of the control group×100.
The differences in the tumor growth trends over time between pairs of treatment groups were assessed using linear mixed effects regression models. These models account for the fact that each animal was measured at multiple time points. A separate model was fit for each comparison, and the area under the curve (AUC) values for each treatment group were calculated using the predicted values from the model. The percent decrease in AUC (ΔAUC) relative to the reference group was then calculated.
Drug combinations were assessed for synergy using observed AUC values. The change in AUC relative to the control was calculated for both single agent treatment groups as well as the combination group. The interaction between the two compounds was then assessed by comparing the change in AUC observed in the combination group to the sum of the changes observed in both single agents. The results can be divided into four categories: synergistic, additive, sub-additive, and antagonistic. Further details regarding combination analyses are provided in the appendix. All p values less than 0.05 were considered significant.

[3] = system: HCT-116 human colorectal cancer xenografts; test: Antitumor activity, HCT-116 xenografts (Example 44); type: in vivo, Mus musculus; conditions: Day 21
Procedure: Compound A was prepared in PEG400 (TCAL, San Diego, Calif., USA) every 7 days and stored at room temperature, shielded from light. The vehicle used in this study was PEG400 (Sigma, St. Louis, Mo., USA).
Low passage (passage number 8) HCT-116 cells (American Type Culture Collection ATCC, Manassas, Va., USA) were grown in McCoy's 5A (ATCC) media with 10% fetal bovine serum (FBS) (PAA Laboratories Pty Ltd, Morningside, Queensland, Australia) and supplied at a concentration of 5.0×10^7 cells/mL. HCT-116 cells (5.0×10^6/animal, 0.1-mL injection volume) were implanted SC into the flank of female athymic nude mice. The animals used in this study are described in the following table.
Female 9 to 10-week-old female Foxn1 nu Hsd:Athymic nude mice were inoculated SC in the flank with 5.0×10^6 HCT-116 cells. Tumor growth was monitored with vernier calipers. The MTV was calculated using the formula V=W^2×L/2. […] Tumor growth and body weight were measured twice per week. Percent TGI and body weight change were calculated on Day 21 while animals were on treatment. […] Antitumor activity was determined by calculating the percent TGI using Equation 1: % tumor growth inhibition (TGI)=(mean tumor volume [MTV] of the control group−MTV of a treated group)/MTV of the control group×100. […]
Drug combinations were assessed for synergy using observed AUC values. […]

Structure (SMILES) | inhibition of Akt, S6, and 4EBP phosphorylation (PTEN mutant cells) | anti-tumor activity in 786-0 model ([1]; orally at 60 and 120 mg/kg, compared to MDA derived tumors) | TGI ([2]; 70 mg/kg QD 3on/4off PO, not significantly different from control) [%] | TGI ([2]; 140 mg/kg QD 3on/4off PO) [%] | TGI ([2]; 210 mg/kg QW PO, not significantly different from control) [%] | TGI ([2]; 420 mg/kg QW PO) [%] | TGI ([3]; 120 mg/kg PO QD for 21 days) [%] | inhibition of kinase activity and tumor growth in 786-0 model ([1]; orally as a solution at 1 mg/kg (QD)) | TGI ([2]; 0.3 mg/kg QD PO) [%] | TGI ([2]; 1.0 mg/kg QD 3on/4off PO) [%] | TGI ([2]; 3.0 mg/kg QW PO) [%] | TGI ([3]; 0.6 mg/kg PO QD 5on/2off for 21 days, not significantly different from control) [%]
Nc1nc2cc(-c3ccc4ncc(C(=O)N5CCOCC5)n4c3)ccc2o1 [Compound A] | not | decreased activity | 19.4 | 41.0 | 21.0 | 40.8 | 8.2 |  |  |  |  | 
CC(C)n1nc(-c2ccc3oc(N)nc3c2)c2c(N)ncnc21 [Compound B] | selective inhibition |  |  |  |  |  |  | effective | 36.9 | 47.2 | 35.8 | 4.5
